# Reference: US20260091015A1, “TREATING IRON DEFICIENCY WITH FERRIC CARBOXYMALTOSE” (PHARMACOSMOS HOLDING A/S, priority 2018, published 2026)
# Columns and labels:
# [1] = tested on: human intact FGF23; experiment: Intact FGF23 (iFGF23) over time, two-site ELISA, trials IDA-04/IDA-05; format: in vivo; settings: single dose 1000 mg at baseline
# Protocol: The trial was a randomized, open-label, comparative trial. Subjects with Iron Deficiency Anaemia (IDA) were randomized 1:1 to one treatment course of one of the following treatments: • Group A: iron isomaltoside 1000 (Monofer®, Pharmacosmos, Holbok, Denmark, termed iron isomaltoside in the following), 1000 mg at baseline • Group B: ferric carboxymaltose (Ferinject®/Injectafer®, Vifor Inc, Switzerland), 750 mg at baseline and day 7, cumulative dose: 1500 mg
# The secondary safety endpoints were the following: • Incidence of s-phosphate below 1.0 mg/dL at any time from baseline to day 35 • Time with hypophosphatemia (i.e. time with s-phosphate <2.0 mg/dL) from baseline to day 35 • Proportion of subjects with hypophosphatemia at day 35 • Absolute [Δ] and relative [%] changes in s-phosphate from baseline to 1, 7, 8, 14, 21, and 35 • Fractional phosphate urinary excretion at 1, 7, 8, 14, 21, and 35 • Change in iFGF23, cFGF23, vitamin D (25, 1,25, 24,25), PTH, and ionized calcium from baseline to 1, 7, 8, 14, 21, and 35 • Type and incidence of AEs • Serious or severe hypersensitivity reaction starting on or after the first dose of randomized treatment (i.e. treatment emergent). The hypersensitivity terms were defined as standardised Medical Dictionary for Regulatory Activities query (SMQ) terms. […]
# The following safety laboratory assessments were analysed: • S-phosphate: inorganic phosphorous forms an ammonium phosphomolybdate complex having the formula (NH4)3[PO4](MoO3)12 with ammonium molybdate in the presence of sulfuric acid. The complex was determined photometrically in the ultraviolet region (340 nm) of the spectrum using the Roche Modular and Cobas Analyzer. • iFGF23 and cFGF23: the human intact FGF23 was measured by the 2nd generation Elisa kit manufactured by Immonotropics, Inc, San Clemente, CA. […] The human C-terminal FGF23 was measured by the Elisa kit manufactured by Immonotropics, Inc, San Clemente, CA. […] After evaporation under nitrogen, the residue was reconstituted and analyzed using Liquid Chromatography (LC) with Tandem Mass Spectrometric detection (MS/MS). […] A direct relationship exists between the amount of PTH present in the patient sample and the amount of relative light units (RLUs) detected by the system. • Ionized calcium: Measured by the IL GEM Premier 3500 PAK cartridge. […]
# [2] = clinical trials and case reports; Wolf et al., 2013; cited from earlier work
Substance,change of the iFGF23 level [1],risk for iFGF23-mediated reduction of serum phosphate levels and development of hypophosphatemia [2]
iron isomaltoside 1000 [IIM],essentially no change,–
iron polymaltose,–,highest risk
saccharated iron oxide,–,highest risk
